Laboratory results reported in US20250064945A1 (Arvinas Operations, Inc., priority 2021, published 2025).

Target: T1, BRM (Homo sapiens, UniProt P51531)
T1 construct: In-Cell Western Screen of BRM Degradation in SW1573 Cells; endogenous in cells; host or cells: SW1573 cells
Assay: Western blot / In-Cell Western screen of BRM degradation in SW1573 cells
Assay type: cell-based
Conditions: overnight (18-20 hours) treatment; for Dmax: read-out: Dmax (%) (% degraded)
How it was run: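 SW1573 cells treated overnight (18-20 hours) with compound at 0.1% final DMSO. BRM measured either by Western blot of RIPA lysates with alpha-tubulin control and chemiluminescent detection, or by In-Cell Western on fixed, permeabilized cells with LI-COR dual-channel read against alpha-tubulin; Dmax and DC50 derived.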

T1 sequence (P51531 whole entry): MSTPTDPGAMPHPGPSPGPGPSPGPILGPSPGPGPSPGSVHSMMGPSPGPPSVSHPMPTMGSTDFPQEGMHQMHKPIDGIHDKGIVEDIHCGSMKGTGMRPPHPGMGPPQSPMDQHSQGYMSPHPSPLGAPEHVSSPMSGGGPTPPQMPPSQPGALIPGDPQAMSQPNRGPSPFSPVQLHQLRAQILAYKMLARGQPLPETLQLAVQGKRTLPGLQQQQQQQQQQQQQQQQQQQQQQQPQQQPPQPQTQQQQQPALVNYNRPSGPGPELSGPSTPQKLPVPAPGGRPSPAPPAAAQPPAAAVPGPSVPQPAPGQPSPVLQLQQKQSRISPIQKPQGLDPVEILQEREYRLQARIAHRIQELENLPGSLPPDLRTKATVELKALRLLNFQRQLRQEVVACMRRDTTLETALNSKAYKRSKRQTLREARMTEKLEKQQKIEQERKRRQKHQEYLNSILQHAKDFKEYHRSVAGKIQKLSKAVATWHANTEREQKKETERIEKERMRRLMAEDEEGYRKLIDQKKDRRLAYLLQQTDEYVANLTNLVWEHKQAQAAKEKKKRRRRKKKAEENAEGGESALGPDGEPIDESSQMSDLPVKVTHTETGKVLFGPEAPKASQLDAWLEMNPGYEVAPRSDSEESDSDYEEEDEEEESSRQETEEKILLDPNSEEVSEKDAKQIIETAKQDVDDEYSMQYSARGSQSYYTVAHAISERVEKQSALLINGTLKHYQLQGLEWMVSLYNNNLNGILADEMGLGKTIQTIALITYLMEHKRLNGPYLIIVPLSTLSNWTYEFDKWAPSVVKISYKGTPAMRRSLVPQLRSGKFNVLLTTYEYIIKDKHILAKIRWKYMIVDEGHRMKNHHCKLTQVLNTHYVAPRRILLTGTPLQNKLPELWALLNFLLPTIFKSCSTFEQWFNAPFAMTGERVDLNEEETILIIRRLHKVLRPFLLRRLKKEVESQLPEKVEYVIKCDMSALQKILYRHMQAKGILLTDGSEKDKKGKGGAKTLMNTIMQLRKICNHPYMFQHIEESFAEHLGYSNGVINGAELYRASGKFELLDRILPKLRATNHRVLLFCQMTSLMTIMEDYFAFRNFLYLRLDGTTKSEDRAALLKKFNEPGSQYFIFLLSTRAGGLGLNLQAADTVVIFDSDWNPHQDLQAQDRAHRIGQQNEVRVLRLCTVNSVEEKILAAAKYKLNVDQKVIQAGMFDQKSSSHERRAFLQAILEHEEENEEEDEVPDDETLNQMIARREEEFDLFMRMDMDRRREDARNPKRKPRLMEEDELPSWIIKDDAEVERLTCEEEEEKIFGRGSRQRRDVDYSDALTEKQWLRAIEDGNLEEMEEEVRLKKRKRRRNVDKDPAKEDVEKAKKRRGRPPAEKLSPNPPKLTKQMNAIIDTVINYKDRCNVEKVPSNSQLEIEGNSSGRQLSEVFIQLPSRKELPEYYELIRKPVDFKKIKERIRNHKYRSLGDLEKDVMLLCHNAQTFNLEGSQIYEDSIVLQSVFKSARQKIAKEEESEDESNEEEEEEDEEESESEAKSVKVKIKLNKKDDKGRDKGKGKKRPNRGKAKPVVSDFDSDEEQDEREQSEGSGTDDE

SMILES | DC50 [nM] | Dmax [%]
Cc1ncsc1-c1ccc([C@H](C)NC(=O)[C@@H]2C[C@@H](O)CN2C(=O)[C@@H](c2cc(N3CCC(CN4CCC5(CC4)CC(N4CCO[C@@H](CN6CC7(CCN(c8cc(-c9ccccc9O)nnc8N)CC7)C6)C4)C5)CC3)no2)C(C)C)cc1 [Compound 18, (2S,4R)-1-[(2R)-2-{3-[4-({2-[(2S)-2-({7-[3-amino-6-(2-hydroxyphenyl)pyridazin-4-yl]-2,7-diazaspiro[3.5]nonan-2-yl}methyl)morpholin-4-yl]-7-azaspiro[3.5]nonan-7-yl}methyl)piperidin-1-yl]-1,2-oxazol-5-yl}-3-methylbutanoyl]-4-hydroxy-N-[(1S)-1-[4-(4-methyl-1,3-thiazol-5-yl)phenyl]ethyl]pyrrolidine-2-carboxamide] | 10 to 30 | > 75
Cc1ncsc1-c1ccc([C@H](C)NC(=O)[C@@H]2C[C@@H](O)CN2C(=O)[C@@H](c2cc(N3CCC(CN4CCC(O[C@H]5C[C@H](Oc6cc(N7C[C@@H]8CN(c9cc(-c%10ccccc%10O)nnc9N)C[C@@H]8C7)ccn6)C5)CC4)CC3)no2)C(C)C)cc1 [Compound 7, (2S,4R)-4-hydroxy-N-[(1S)-1-[4-(4-methyl-1,3-thiazol-5-yl)phenyl]ethyl]-1-[(2R)-3-methyl-2-{3-[4-({4-[(1r,3r)-3-({4-[(3aR,6aS)-5-[3-amino-6-(2-hydroxyphenyl)pyridazin-4-yl]-octahydropyrrolo[3,4-c]pyrrol-2-yl]pyridin-2-yl}oxy)cyclobutoxy]piperidin-1-yl}methyl)piperidin-1-yl]-1,2-oxazol-5-yl}butanoyl]pyrrolidine-2-carboxamide] | < 2.5 | > 75
Cc1ncsc1-c1ccc([C@H](C)NC(=O)[C@@H]2C[C@@H](O)CN2C(=O)[C@@H](c2cc(OCCN3CCN(CCOc4cc(N5CCN(c6cc(-c7ccccc7O)nnc6N)CC56COC6)ccn4)CC3)no2)C(C)C)cc1 [Compound 15, (2S,4R)-1-[(2R)-2-{3-[2-(4-{2-[(4-{8-[3-amino-6-(2-hydroxyphenyl)pyridazin-4-yl]-2-oxa-5,8-diazaspiro[3.5]nonan-5-yl}pyridin-2-yl)oxy]ethyl}piperazin-1-yl)ethoxy]-1,2-oxazol-5-yl}-3-methylbutanoyl]-4-hydroxy-N-[(1S)-1-[4-(4-methyl-1,3-thiazol-5-yl)phenyl]ethyl]pyrrolidine-2-carboxamide] | < 2.5 | > 75
Cc1ncsc1-c1ccc([C@H](C)NC(=O)[C@@H]2C[C@@H](O)CN2C(=O)[C@@H](c2cc(OCCN3CCN(CCOc4cc(N5CCN(c6cc(-c7ccccc7O)nnc6N)CC56COC6)ccn4)CC3)no2)C(C)C)cn1 [Compound 17, (2S,4R)-1-[(2R)-2-{3-[2-(4-{2-[(4-{8-[3-amino-6-(2-hydroxyphenyl)pyridazin-4-yl]-2-oxa-5,8-diazaspiro[3.5]nonan-5-yl}pyridin-2-yl)oxy]ethyl}piperazin-1-yl)ethoxy]-1,2-oxazol-5-yl}-3-methylbutanoyl]-4-hydroxy-N-[(1S)-1-[6-(4-methyl-1,3-thiazol-5-yl)pyridin-3-yl]ethyl]pyrrolidine-2-carboxamide] | 2.5 to 10 | > 75
Cc1nccn1-c1ccc([C@H](C)NC(=O)[C@@H]2C[C@@H](O)CN2C(=O)[C@H](c2cc(OCCN3CCN(CCOc4cc(N5CCN(c6cc(-c7ccccc7O)nnc6N)CC56COC6)ccn4)CC3)no2)C(C)C)cc1 [Compound 21, (2S,4R)-1-[(2S)-2-{3-[2-(4-{2-[(4-{8-[3-amino-6-(2-hydroxyphenyl)pyridazin-4-yl]-2-oxa-5,8-diazaspiro[3.5]nonan-5-yl}pyridin-2-yl)oxy]ethyl}piperazin-1-yl)ethoxy]-1,2-oxazol-5-yl}-3-methylbutanoyl]-4-hydroxy-N-[(1S)-1-[4-(2-methyl-1H-imidazol-1-yl)phenyl]ethyl]pyrrolidine-2-carboxamide] | ≥ 30 | 
Cc1ncsc1-c1ccc([C@H](C)NC(=O)[C@@H]2C[C@@H](O)CN2C(=O)[C@@H](c2cc(N3CCC(CN4CCC(O[C@H]5C[C@H](N6CCC(CN7CCN(c8cc(-c9ccccc9O)nnc8N)CC78COC8)CC6)C5)CC4)CC3)no2)C(C)C)cc1 [Compound 13, (2S,4R)-4-hydroxy-N-[(1S)-1-[4-(4-methyl-1,3-thiazol-5-yl)phenyl]ethyl]-1-[(2R)-3-methyl-2-{3-[4-({4-[(1r,3r)-3-[4-({8-[3-amino-6-(2-hydroxyphenyl)pyridazin-4-yl]-2-oxa-5,8-diazaspiro[3.5]nonan-5-yl}methyl)piperidin-1-yl]cyclobutoxy]piperidin-1-yl}methyl)piperidin-1-yl]-1,2-oxazol-5-yl}butanoyl]pyrrolidine-2-carboxamide] | < 2.5 | > 75
Cc1ncsc1-c1ccc([C@H](C)NC(=O)[C@@H]2C[C@@H](O)CN2C(=O)[C@@H](c2cc(N3CCC(CN4CCC5(CC4)CC(N4CCO[C@@H](CN6CCOC7(CCN(c8cc(-c9ccccc9O)nnc8N)CC7)C6)C4)C5)CC3)no2)C(C)C)cc1 [Compound 26, (2S,4R)-1-[(2R)-2-{3-[4-({2-[(2S)-2-({9-[3-amino-6-(2-hydroxyphenyl)pyridazin-4-yl]-1-oxa-4,9-diazaspiro[5.5]undecan-4-yl}methyl)morpholin-4-yl]-7-azaspiro[3.5]nonan-7-yl}methyl)piperidin-1-yl]-1,2-oxazol-5-yl}-3-methylbutanoyl]-4-hydroxy-N-[(1S)-1-[4-(4-methyl-1,3-thiazol-5-yl)phenyl]ethyl]pyrrolidine-2-carboxamide] | < 2.5 | > 75
Cc1ncsc1-c1ccc([C@H](C)NC(=O)[C@@H]2C[C@@H](O)CN2C(=O)[C@@H](c2cc(N3CCC(CN4CCC(O[C@H]5C[C@H](n6ccc(CN7C8CCC7CN(c7cc(-c9ccccc9O)nnc7N)C8)n6)C5)CC4)CC3)no2)C(C)C)cc1 [Compound 14, (2S,4R)-4-hydroxy-N-[(1S)-1-[4-(4-methyl-1,3-thiazol-5-yl)phenyl]ethyl]-1-[(2R)-3-methyl-2-{3-[4-({4-[(1r,3r)-3-[3-({3-[3-amino-6-(2-hydroxyphenyl)pyridazin-4-yl]-3,8-diazabicyclo[3.2.1]octan-8-yl}methyl)-1H-pyrazol-1-yl]cyclobutoxy]piperidin-1-yl}methyl)piperidin-1-yl]-1,2-oxazol-5-yl}butanoyl]pyrrolidine-2-carboxamide] | ≥ 30 | 
CC(C)[C@@H](C(=O)N1C[C@H](O)C[C@H]1C(=O)N[C@@H](C)c1ccc(-c2ccnn2C)cc1)c1cc(N2CCC(CN3CCC(O[C@H]4C[C@H](n5cc(-c6cn7cc(-c8ccccc8O)nc7nc6N)cn5)C4)CC3)CC2)no1 [Compound 41, (2S,4R)-4-hydroxy-N-[(1S)-1-[4-(1-methyl-1H-pyrazol-5-yl)phenyl]ethyl]-1-[(2R)-3-methyl-2-{3-[4-({4-[(1r,3r)-3-{4-[7-amino-2-(2-hydroxyphenyl)imidazo[1,2-a]pyrimidin-6-yl]-1H-pyrazol-1-yl}cyclobutoxy]piperidin-1-yl}methyl)piperidin-1-yl]-1,2-oxazol-5-yl}butanoyl]pyrrolidine-2-carboxamide] | < 2.5 | > 75
Cc1ncsc1-c1ccc([C@H](C)NC(=O)[C@@H]2C[C@@H](O)CN2C(=O)[C@@H](c2cc(N3CCC(CN4CCC(O[C@H]5C[C@H](Oc6cc(N7CCN(c8cc(-c9ccccc9O)nnc8N)CC78CC8)ccn6)C5)CC4)CC3)no2)C(C)C)cc1 [Compound 6, (2S,4R)-4-hydroxy-N-[(1S)-1-[4-(4-methyl-1,3-thiazol-5-yl)phenyl]ethyl]-1-[(2R)-3-methyl-2-{3-[4-({4-[(1r,3r)-3-[(4-{7-[3-amino-6-(2-hydroxyphenyl)pyridazin-4-yl]-4,7-diazaspiro[2.5]octan-4-yl}pyridin-2-yl)oxy]cyclobutoxy]piperidin-1-yl}methyl)piperidin-1-yl]-1,2-oxazol-5-yl}butanoyl]pyrrolidine-2-carboxamide] | < 2.5 | > 75
CC(C)[C@@H](C(=O)N1C[C@H](O)C[C@H]1C(=O)N[C@@H](C)c1ccc(C#N)cc1)c1cc(OCCN2CCN(CCOc3cc(N4CCN(c5cc(-c6ccccc6O)nnc5N)CC45COC5)ccn3)CC2)no1 [Compound 19, (2S,4R)-1-[(2R)-2-{3-[2-(4-{2-[(4-{8-[3-amino-6-(2-hydroxyphenyl)pyridazin-4-yl]-2-oxa-5,8-diazaspiro[3.5]nonan-5-yl}pyridin-2-yl)oxy]ethyl}piperazin-1-yl)ethoxy]-1,2-oxazol-5-yl}-3-methylbutanoyl]-N-[(1S)-1-(4-cyanophenyl)ethyl]-4-hydroxypyrrolidine-2-carboxamide] | 2.5 to 10 | > 75
Cc1ncsc1-c1ccc([C@H](C)NC(=O)[C@@H]2C[C@@H](O)CN2C(=O)[C@H](c2cc(OCCCC#Cc3cn4cc(-c5ccccc5O)nc4nc3N)no2)C(C)C)cc1 [Compound 30, (2S,4R)-1-[(2S)-2-[3-({5-[7-amino-2-(2-hydroxyphenyl)imidazo[1,2-a]pyrimidin-6-yl]pent-4-yn-1-yl}oxy)-1,2-oxazol-5-yl]-3-methylbutanoyl]-4-hydroxy-N-[(1S)-1-[4-(4-methyl-1,3-thiazol-5-yl)phenyl]ethyl]pyrrolidine-2-carboxamide] | ≥ 30 | 
Cc1ncsc1-c1ccc([C@H](C)NC(=O)[C@@H]2C[C@@H](O)CN2C(=O)[C@@H](c2cc(OCCCC#Cc3cn4cc(-c5ccccc5O)nc4nc3N)no2)C(C)C)cc1 [Compound 31, (2S,4R)-1-[(2R)-2-[3-[5-[7-amino-2-(2-hydroxyphenyl)imidazo[1,2-a]pyrimidin-6-yl]pent-4-ynoxy]isoxazole-5-yl]-3-methyl-butanoyl]-4-hydroxy-N-[(1S)-1-[4-(4-methylthiazol-5-yl)phenyl]ethyl]pyrrolidine-2-carboxamide] | ≥ 30 | 
